For assay [1], the system named is B16-F10. Briefly: Growth inhibition of […]-induced mouse B16-F10 cells at 33 uM relative to control. The assay is classed as functional. To be noted: read-out: GI.
Assay [2] addresses T1, Tyrosine-protein phosphatase non-receptor type 2 (Homo sapiens, UniProt P17706).
T1 sequence (P17706 whole entry): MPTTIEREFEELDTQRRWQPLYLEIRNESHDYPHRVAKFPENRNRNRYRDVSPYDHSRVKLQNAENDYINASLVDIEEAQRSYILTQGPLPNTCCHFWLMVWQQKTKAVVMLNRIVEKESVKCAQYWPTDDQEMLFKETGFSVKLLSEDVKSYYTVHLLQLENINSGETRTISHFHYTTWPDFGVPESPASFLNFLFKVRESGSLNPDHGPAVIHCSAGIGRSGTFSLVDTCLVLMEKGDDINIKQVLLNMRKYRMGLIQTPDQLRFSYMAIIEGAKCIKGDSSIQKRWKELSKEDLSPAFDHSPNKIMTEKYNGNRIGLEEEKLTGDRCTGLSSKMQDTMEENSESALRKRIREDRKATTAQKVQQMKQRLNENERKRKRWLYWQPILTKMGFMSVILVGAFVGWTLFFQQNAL
The assay is described as follows: Inhibition of PTPN2 (unknown origin) by Mobility shift assay.

For assay [3], the system named is B16-F10. The assay is described as follows: Growth inhibition of mouse B16-F10 cells at 33 uM relative to control. To be noted: read-out: GI. The assay is classed as functional.
Assay [4] addresses T2, Tyrosine-protein phosphatase non-receptor type 1 (Homo sapiens, UniProt P18031).
T2 sequence (P18031 whole entry): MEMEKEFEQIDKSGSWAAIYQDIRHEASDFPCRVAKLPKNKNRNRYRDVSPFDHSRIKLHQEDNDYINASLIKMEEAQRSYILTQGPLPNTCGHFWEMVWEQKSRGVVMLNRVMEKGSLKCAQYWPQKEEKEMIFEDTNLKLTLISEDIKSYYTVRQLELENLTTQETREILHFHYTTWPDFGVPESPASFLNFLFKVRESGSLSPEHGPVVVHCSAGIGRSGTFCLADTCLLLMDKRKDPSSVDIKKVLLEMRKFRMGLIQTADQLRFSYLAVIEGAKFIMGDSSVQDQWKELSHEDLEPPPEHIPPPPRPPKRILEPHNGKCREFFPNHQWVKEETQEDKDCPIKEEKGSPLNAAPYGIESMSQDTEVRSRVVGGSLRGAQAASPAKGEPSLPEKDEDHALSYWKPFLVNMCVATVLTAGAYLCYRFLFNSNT
Briefly: Inhibition of PTPN1 (unknown origin) by Mobility shift assay.

On to `O=C1CN(c2c(O)cc3ccc(C4CCN(S(=O)(=O)C5CC5)C4)cc3c2F)S(=O)(=O)N1` (centres undefined), for which the inhibition of growth at 33 µM with B16-F10 [1] was 60%; in the assay with B16-F10 [3] it was less than 25%. The IC50 is less than 1 nM in assay [2] and 1 nM in assay [4].
The matching figures for `O=C1CN(c2c(O)cc3ccc(OCCC4CC4(F)F)cc3c2F)S(=O)(=O)N1` (centres undefined): 60%, less than 25%, less than 1 nM and less than 1 nM.
The matching figures for `O=C1CN(c2c(O)cc3ccc(NCCC4CC4)cc3c2F)S(=O)(=O)N1`: greater than 90%, less than 25%, 1 nM and 1 nM.
For `CC(C)CCS(=O)(=O)N1CC=C(c2ccc3cc(O)c(N4CC(=O)NS4(=O)=O)c(F)c3c2)C1` the same measures were 60%, less than 25%, less than 1 nM and less than 1 nM.
Regarding `O=C1CN(c2c(O)cc3ccc(NCCN4CCC4)cc3c2F)S(=O)(=O)N1`, the inhibition of growth at 33 µM in the assay with B16-F10 [1] is greater than 90%; in the assay with B16-F10 [3], less than 25%. Also, the IC50 in assay [2] was 1 nM; in assay [4], greater than 100 nM.
For the compound `CCS(=O)(=O)N1CC=C(c2ccc3cc(O)c(N4CC(=O)NS4(=O)=O)c(F)c3c2)C1`, the inhibition of growth at 33 µM in the assay with B16-F10 [1] was greater than 90%; with B16-F10 [3], less than 25%. Further, the 50% inhibitory concentration (IC50) in assay [2] and in assay [4] was less than 1 nM throughout.
For the compound `CC(C)(C#N)CCOc1ccc2cc(O)c(N3CC(=O)NS3(=O)=O)c(F)c2c1`, the values for the inhibition of growth at 33 µM with B16-F10 [1] and in the assay on B16-F10 [3] were 60% and less than 25%, respectively. In addition, the half-maximal inhibitory concentration (IC50) in assay [2] and in assay [4] was less than 1 nM in each case.
For `C[C@H](O)CCOc1ccc2cc(O)c(N3CC(=O)NS3(=O)=O)c(F)c2c1`, the inhibition of growth at 33 µM in the assay with B16-F10 [1] is greater than 90%; with B16-F10 [3], less than 25%. For the same compound, the 50% inhibitory concentration (IC50) in assay [2] was less than 1 nM; in assay [4], 1 nM.
For `O=C1CN(c2c(O)cc3ccc(OCC4CCCOC4)cc3c2F)S(=O)(=O)N1` (centres undefined) the same measures were 60%, less than 25%, less than 1 nM and greater than 100 nM.
For the compound `CC(C)(O)CCOc1ccc2c(F)c(N3CC(=O)NS3(=O)=O)c(O)cc2c1`, the half-maximal inhibitory concentration (IC50) in assay [2] was greater than 10 nM; in assay [4], greater than 100 nM.
With `O=C1CN(c2c(O)cc3ccc(-c4cnn(CC5CC5)c4)cc3c2F)S(=O)(=O)N1`, the inhibition of growth at 33 µM in the assay on B16-F10 [1] was 60%; in the assay on B16-F10 [3] it was less than 25%. Moreover, the IC50 in assay [2] and in assay [4] was less than 1 nM each time.
For the compound `CC(C)(C#N)CCOc1cc2c(F)c(N3CC(=O)NS3(=O)=O)c(O)cc2cc1O`, the 50% inhibitory concentration (IC50) in assay [2] and in assay [4] was less than 1 nM throughout.
